This note sets out measurements from patent publication US4853384A, “1-carbonyl derivatives of 4-aryl-4-aryloxypiperidines” (Hoechst-Roussel Pharmaceuticals Inc., priority 1988, dated 1989).

One may read the ED50 as the midpoint of the dose-response relation.

Assay type in all cases: in vivo, mice (male, Charles River, CD-1)
For assay [1], the system named is mice. Description: phenyl-p-quinone (phenyl-p-benzoquinone) writhing assay in mice, analgesia. How it is done:
The procedure employed to determine analgetic utility is a modification of the phenyl-p-benzoquinone writhing assay in mice, a standard assay for analgesia [Proc. Soc. Exptl. Bio. […] The solution is administered to the subject mice intraperitoneally at a dose of 10 ml per kg of body weight. A characteristic "writhe" an inward rotation of one or more feet with twisting and turning of the trunk, drawing in of the abdominal wall, lordosis and arching of the back, is produced. A total of 28 male mice (Charles River, CD-1), weighing 18 to 30 grams, are employed for a time response. The subject animals receive food and water ad libitum. Test compounds are dissolved in distilled water, or suspended in distilled water containing one drop of a suitable surfactant, such as Tween-80. […] A control group (2 animals per group) receive an equal volume of the vehicle. After the administration of the phenyl-p-quinone, the mice are place separately in one liter beakers, and after five minutes, are observed for ten minutes. The number of writhes for each animal is recorded. The following formula is used to compute the percent inhibition: [formula] The time period with the greatest percent of inhibition is considered the peak time.
For orientation: In writhing tests, fewer writhes than in controls are read as antinociception.

In assay [2] the test system is mice. Description: Metrazol lethality assay (MTZ), anticonvulsant activity. The conditions noted are these: Mus musculus, po. How it is done: (§1) The compounds of this invention are also useful as anticonvulsants due to their anticonvulsant activity in mammals. Anticonvulsant activity is measured in male mice using the supramaximal electroshock (SES) assay described in Arch. Int. Pharmacodyn. 92, pp. 97-107, (1952) and the metrazol lethality assay (MTZ) described in J. Pharmacol. Exp. Ther., 81, 402 (1944).
Groups of male mice (Charles River, CD-1), weighing 18 to 30 grams are employed in the Metrazol lethality assay. Test compounds are dissolved in distilled water or if insoluble, suspended in water, to which a surfactant, such as Tween-80 is added. The test compounds are administered orally, the administered dose being dissolved or suspended in 10 ml of solution or suspension per kg of animal body weight. Control animals (2 mice/group) receive water or water and Tween-80, i.e., the vehicle for administration of the test compound. Metrazol (pentylenetetrazol) is dissolved in water (concentration 225 mg of Metrazol/10 ml of solution), and the solution is administered subcutaneously to groups of five animals each at one or more time intervals of 15, 30, 60, 90, or 120 minutes after administration of the test compound. The number of animal alive 15 minutes after treatment with Metrazol is determined and recorded. The following formula is employed to calculate the percent protection against Metrazol lethality. [formula]
A dose range determination is performed by substantially the same procedure as the time response determination. In the dose range determination, five groups of 10 animals per group are employed. This determination is generally reserved for those compounds which protect against lethality by greater than 70% at the screening dose employed.
(§2) The anticonvulsant activity of several of the compounds of this invention as per the SES and MTZ assay procedures is provided in Table 2.

Assay [3] concerns mice. Description: supramaximal electroshock (SES) assay, anticonvulsant activity. The settings on record: Mus musculus, ip. The procedure: as §1
Groups of male mice (Charles River, CD-1) weighing 18 to 30 g are employed in the SES assay. Test compounds are dissolved in distilled water, or if insoluble, suspended in water containing one drop of a surfactant, such as Tween-80. Test compounds are generally administered intraperitoneally at a dose of 10 ml of solution, or suspension, per kg of animal body weight. The output terminals of an A.C. shocker, which delivers 206 volts rms for 300 msec, are placed across the animals' eyes, an electrode paste coating assuring contact of the terminals with the eyes. The test compound is administered and thereafter the subject animals are shocked.
Protection is expressed as normalized percent inhibition relative to vehicle control. [formula] A time response is carried out using 6 animals per group. Animals are tested at 30, 60 and 120 minutes post drug. Additional time periods are tested if indicated by previous tests. A dose range determination is generally reserved for those compounds which inhibit convulsions by greater than about 45-55% at the screening dose employed at the time the test was performed. When the peak activity time has been determined, a dose response is initiated, using 10 animals per group at that time period.
as §2
In general terms: Protection in the maximal electroshock model is a classic sign of anticonvulsant action.

`CC(=O)N1CCC(Oc2ccc(C(F)(F)F)cc2)(c2ccccc2)CC1` [1-Acetyl-4-phenyl-4-(4-trifluoromethylphenoxy)piperidine]: in the assay with mice [1], the “Analgesic Activity: % Inhibition of writhing at a screening dose of 20 mg/kg, s.c.” value (shortened to “Analgesic Activity: % Inhibition”) is 32%. Further, the ED50 in the assay with mice [2] was 44.8 mg/kg; with mice [3], 32.1 mg/kg.

Take `NC(=O)N1CCC(Oc2ccc([N+](=O)[O-])cc2)(c2ccccc2)CC1` [1-Aminocarbonyl-4-(4-nitrophenoxy)-4-phenylpiperidine]: in the assay with mice [1], the “Analgesic Activity: % Inhibition” value stood at 42%.

As for `CC(=O)N1CCC(Oc2cccc(Cl)c2)(c2ccccc2)CC1` [1-Acetyl-4-(3-chlorophenoxy)-4-phenylpiperidine], the “Analgesic Activity: % Inhibition” value in the assay on mice [1] amounted to 33%. The compound further had a median effective dose (ED50) with mice [3] of 55.4 mg/kg.

Consider `CC(=O)N1CCC(Oc2cccc(C(F)(F)F)c2)(c2ccccc2)CC1` [1-Acetyl-4-phenyl-4-(3-trifluoromethylphenoxy)piperidine], for which the “Analgesic Activity: % Inhibition” value in the assay on mice [1] stood at 48%.

In the assay with mice [2], `CNC(=O)N1CCC(Oc2c(F)c(F)c(F)c(F)c2F)(c2ccccc2)CC1` [1-(N-Methylamino)carbonyl-4-(2,3,4,5,6-pentafluorophenoxy)-4-phenylpiperidine] came in with an ED50 of 64.3 mg/kg.

For `CC(=O)Oc1ccccc1C(=O)O` [asprin, reference compound], in the assay on mice [1], the “Analgesic Activity: % Inhibition” value was 33%.

Turning to `O=C(Cn1ccnc1)N1CCC(Oc2c(F)c(F)c(F)c(F)c2F)(c2ccccc2)CC1` [1-[2-(Imidazol-1-yl)acetyl]-4-(2,3,4,5,6-pentafluorophenoxy)-4-phenylpiperidine], the ED50 in the assay on mice [2] was 38 mg/kg.

For the compound `CNC(=O)N1CCC(Oc2ccc(C(F)(F)F)cc2)(c2ccccc2)CC1` [1-(N-Methylamino)carbonyl-4-phenyl-4-(4-trifluoromethylphenoxy)piperidine], in the assay on mice [2], the ED50 was 41.2 mg/kg.

Consider `CC(=O)N1CCC(Oc2c(F)c(F)c(F)c(F)c2F)(c2ccccc2)CC1` [1-Acetyl-4-(2,3,4,5,6-pentafluorophenoxy)-4-phenylpiperidine], for which, in the assay with mice [1], the “Analgesic Activity: % Inhibition” value was 38%. Besides, the ED50 in the assay on mice [2] turned out to be 60.5 mg/kg.

Take `CNC(=O)N1CCC(Oc2ccc([N+](=O)[O-])cc2)(c2ccccc2)CC1` [1-(N-Methylamino)carbonyl-4-(4-nitrophenoxy)-4-phenylpiperidine]: the “Analgesic Activity: % Inhibition” value in the assay on mice [1] came to 34%. The same compound showed a median effective dose (ED50) in the assay with mice [2] of 55.2 mg/kg.

The compound `CNC(=O)N1CCC(Oc2cccc(C(F)(F)F)c2)(c2ccccc2)CC1` [1-(N-Methylamino)carbonyl-4-phenyl-4-(3-trifluoromethylphenoxy)piperidine] gave an ED50 with mice [3] of 43.5 mg/kg.

`CCC1(c2ccccc2)C(=O)NC(=O)NC1=O` [phenobarbital, reference compound]: the ED50 in the assay with mice [3] was found to be 8.4 mg/kg.
